Data reported in patent US12384753B2, “17-beta-hydroxysteroid dehydrogenase type 13 inhibitors and methods of use thereof” (Enanta Pharmaceuticals, Inc., priority 2021, dated 2025).
pIC50: −log10 of the molar value.

Molecular target: Recombinant human HSD17B13 (Homo sapiens (Human), UniProt Q7Z5P4)
Experiment: HSD17B13 rapid-fire mass spectrometry assay (RF/MS assay)
Type: biochemical
Details: inhibition of HSD17B13; LTB4 10 μM, NAD+ 0.5 mM, RT 3 h; IC50 ranges A-E
Outline: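 Sf9-expressed human HSD17B13 (80 nM) with 10 μM LTB4 and 0.5 mM NAD+, incubated with compound (0–100 μM) for 3 h at RT in Tris pH 7.5/BSA/Tween-20. After formic acid quench, LTB4 conversion to 12-oxo-LTB4 measured by RapidFire MS/MS. IC50 from normalised residual activity, duplicates.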

Recombinant human HSD17B13, sequence (Q7Z5P4 20-300): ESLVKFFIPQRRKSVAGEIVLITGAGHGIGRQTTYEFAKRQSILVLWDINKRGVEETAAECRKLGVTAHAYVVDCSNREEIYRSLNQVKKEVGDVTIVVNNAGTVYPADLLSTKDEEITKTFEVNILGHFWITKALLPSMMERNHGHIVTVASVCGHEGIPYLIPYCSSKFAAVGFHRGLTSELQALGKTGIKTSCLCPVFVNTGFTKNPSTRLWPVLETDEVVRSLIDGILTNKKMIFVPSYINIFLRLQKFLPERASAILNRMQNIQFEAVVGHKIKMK

Structure (SMILES) | pIC50
COc1cc(C(=O)O)ccc1NS(=O)(=O)c1csc(N2CCCC(c3ccc(F)cc3)C2)n1 (stereo not drawn) [Example 292] | 4.00 to 6.00
COc1cc(C(=O)O)ccc1NS(=O)(=O)c1csc(N2CCCC(c3ccc(C(F)(F)F)cc3)C2)n1 (stereo not drawn) [Example 293] | 4.00 to 6.00
COc1cc(C(=O)O)ccc1NS(=O)(=O)c1csc(N2CCN(C(=O)OCc3ccccc3)CC2)n1 [Example 294] | 6.30 to 7.00
COc1cc(C(=O)O)ccc1NS(=O)(=O)c1csc(N2CCCC(C(C)c3ccccc3)C2)n1 (stereo not drawn) [Example 295] | 4.00 to 6.00
COc1cc(C(=O)O)ccc1NS(=O)(=O)c1csc(-c2ccc(-c3ccc(F)cc3)cc2)n1 [Example 296] | 4.00 to 6.00
COc1cc(C(=O)O)ccc1NS(=O)(=O)c1csc(-c2ccc(C(=O)c3ccccc3)cc2)n1 [Example 297] | 6.00 to 6.30
COc1cc(C(=O)O)ccc1NS(=O)(=O)c1ccc(-c2csc(C)n2)cc1 [Example 298] | 4.00 to 6.00
COc1cc(C(=O)O)ccc1NS(=O)(=O)c1csc(-c2ccc(-c3ccccc3)nc2)n1 [Example 299] | 4.00 to 6.00
COc1cc(C(=O)O)ccc1NS(=O)(=O)c1csc(-c2ccc(C3CCCC3)cc2)n1 [Example 300] | 6.00 to 6.30
COc1cc(C(=O)O)ccc1NS(=O)(=O)c1csc(-c2ccc(-c3ccccc3)cc2)n1 [Example 301] | 6.00 to 6.30
COc1cc(C(=O)O)ccc1NS(=O)(=O)c1csc(-c2ccc(-c3ccccc3)c(F)c2)n1 [Example 302] | 6.30 to 7.00
COc1cc(C(=O)O)ccc1NS(=O)(=O)c1csc(-c2ccc(N3CCOCC3)cc2)n1 [Example 303] | 4.00 to 6.00
COc1cc(C(=O)O)ccc1NS(=O)(=O)c1csc(-c2ccc(-c3ccccc3)cc2F)n1 [Example 304] | 6.00 to 6.30
COc1cc(C(=O)O)ccc1NS(=O)(=O)c1csc(N2CCN(C(=O)OC(C)(C)C)CC2)n1 [Example 305, 4-((2-(4-(tert-butoxycarbonyl)piperazin-1-yl)thiazole)-4-sulfonamido)-3-methoxybenzoic acid] | 4.00 to 6.00
COc1cc(C(=O)O)ccc1NS(=O)(=O)c1nc(-c2ccc(F)cc2)sc1-c1ccccc1 [Example 306] | 4.00 to 6.00
COc1cc(C(=O)O)ccc1NS(=O)(=O)c1csc(N2CCN(C(=O)OCC3CCCCC3)CC2)n1 [Example 307, 4-((2-(4-((cyclohexylmethoxy)carbonyl)piperazin-1-yl)thiazole)-4-sulfonamido)-3-methoxybenzoic acid] | 6.00 to 6.30
COc1cc(C(=O)O)ccc1NS(=O)(=O)c1csc(N2CCN(Cc3ccc(OC(F)(F)F)cc3)CC2)n1 [Example 308] | 6.30 to 7.00
COc1cc(C(=O)O)ccc1NS(=O)(=O)c1csc(N2CCN(C(=O)OC(C)C)CC2)n1 [Example 309] | 4.00 to 6.00
COc1cc(C(=O)O)ccc1NS(=O)(=O)N1CCC(c2ccccc2)CC1 [Example 310] | 4.00 to 6.00
COc1cc(C(=O)O)ccc1NS(=O)(=O)N1CCC(c2ccccn2)CC1 [Example 311] | 4.00 to 6.00
COc1cc(C(=O)O)ccc1NS(=O)(=O)N1CCN(c2ccccc2)CC1 [Example 312] | 4.00 to 6.00
COc1cc(C(=O)O)ccc1NS(=O)(=O)N1CCC(c2nnn[nH]2)CC1 [Example 313] | 4.00 to 6.00

Structure (SMILES) | pIC50
COc1cc(C(=O)O)ccc1NS(=O)(=O)N1CCN(c2nccs2)CC1 [Example 314] | < 4.00
COc1cc(C(=O)O)ccc1NS(=O)(=O)N1CCN(C2CCCC2)CC1 [Example 315] | 4.00 to 6.00
COc1cc(C(=O)O)ccc1NS(=O)(=O)c1ccc(-c2ccc(F)cc2)cc1 [Example 316] | 6.30 to 7.00
COc1cc(C(=O)O)ccc1NS(=O)(=O)N1CCN(c2ccc(OC(F)(F)F)cc2)C(=O)C1 [Example 317] | 4.00 to 6.00
COc1cc(C(=O)O)ccc1NS(=O)(=O)C1CCN(c2ncccn2)CC1 [Example 318] | 4.00 to 6.00
COc1cc(C(=O)O)ccc1NS(=O)(=O)c1cccc(-c2ccc(F)cc2)c1 [Example 319] | 4.00 to 6.00
COc1cc(C(=O)O)ccc1NS(=O)(=O)N1CCCC(Oc2ccccc2)C1 (stereo not drawn) [Example 320, 3-methoxy-4-((3-phenoxypiperidine)-1-sulfonamido)benzoic acid] | 4.00 to 6.00
COc1cc(C(=O)O)ccc1NS(=O)(=O)N1CCN(c2cccc(-c3ccccc3)c2)CC1 [Example 321] | 4.00 to 6.00
COc1cc(C(=O)O)ccc1NS(=O)(=O)c1csc(-c2ccc(C(=O)O)cc2OC)n1 [Example 322] | 4.00 to 6.00
COc1cc(C(=O)O)ccc1NS(=O)(=O)c1ccc2sc(-c3ccc(F)cc3)nc2c1 [Example 323] | 4.00 to 6.00
COc1cc(C(=O)O)ccc1NS(=O)(=O)c1ccc(-c2ccc(F)cc2)c(OC)c1 [Example 324] | 6.30 to 7.00
COc1cc(C(=O)O)ccc1NS(=O)(=O)c1ccc(-c2ccc(C3CCCCC3)cc2)cc1OC(F)(F)F [Example 325] | 4.00 to 6.00
COc1cc(C(=O)O)ccc1NS(=O)(=O)c1ccc(-c2ccc(C3CCCCC3)cc2)c(F)c1 [Example 326, 4-((4′-cyclohexyl-2-fluoro-[1,1′-biphenyl])-4-sulfonamido)-3-methoxybenzoic acid] | 6.30 to 7.00
COc1cc(C(=O)O)ccc1NS(=O)(=O)Nc1ccc(C(=O)O)cc1OC [Example 327] | 4.00 to 6.00
COc1cc(C(=O)O)ccc1NS(=O)(=O)Nc1ccc2nc(-c3ccc(F)cc3)sc2c1 [Example 328, 4-((N-(2-(4-fluorophenyl)benzo[d]thiazol-6-yl)sulfamoyl)amino)-3-methoxybenzoic acid] | 4.00 to 6.00
COc1cc(C(=O)O)ccc1NS(=O)(=O)Nc1nc2ccc(-c3ccc(F)cc3)cc2s1 [Example 329] | 4.00 to 6.00
COc1cc(C(=O)O)ccc1NS(=O)(=O)N1C[C@H]2CN(C(=O)OC(C)(C)C)C[C@H]2C1 [Example 331, 4-(((3aR,6aS)-5-(tert-butoxycarbonyl)octahydropyrrolo[3,4-c]pyrrole)-2-sulfonamido)-3-methoxybenzoic acid] | 4.00 to 6.00
COc1cc(C(=O)O)ccc1NS(=O)(=O)c1ccc(-c2cnc(-c3ccccc3)s2)c(F)c1 [Example 332] | 6.30 to 7.00
COc1cc(C(=O)O)ccc1NS(=O)(=O)c1ccc(-c2ccc(F)cc2)cc1F [Example 333] | 6.30 to 7.00
COc1cc(C(=O)O)ccc1NS(=O)(=O)N1Cc2ccc(-c3ccc(F)cc3)cc2C1 [Example 334] | 6.30 to 7.00
COc1cc(C(=O)O)ccc1NS(=O)(=O)c1ccc(C#CC2CCCC2)c(F)c1 [Example 335, 4-((4-(cyclopentylethynyl)-3-fluorophenyl)sulfonamido)-3-methoxybenzoic acid] | > 7.00
COc1cc(C(=O)O)ccc1NS(=O)(=O)c1csc(-c2ccc(C3CCC(C)(C)CC3)cc2)n1 [Example 336] | > 7.00

Structure (SMILES) | pIC50
COc1cc(C(=O)O)ccc1NS(=O)(=O)c1ccc(-c2cnc(-c3ccccc3)s2)c(F)c1 [Example 337] | 6.30 to 7.00
COc1cc(C(=O)O)ccc1NS(=O)(=O)N1Cc2ccc(-c3ccc(F)cc3)cc2C1 [Example 338] | 6.30 to 7.00
COc1cc(C(=O)O)ccc1NS(=O)(=O)c1ccc(-c2ccc3c(c2)C(C)(C)CCC3(C)C)cc1F [Example 339] | 6.00 to 6.30
COc1cc(C(=O)O)ccc1NS(=O)(=O)c1ccc(-c2ccc(C3CCCCC3)cc2)cn1 [Example 340] | 4.00 to 6.00
COc1cc(C(=O)O)ccc1NS(=O)(=O)c1ccc(C2=CCN(c3ccccc3)CC2)cc1F [Example 341] | 6.00 to 6.30
COc1cc(C(=O)O)ccc1NS(=O)(=O)N1Cc2ccc(C#CC3CCCC3)cc2C1 [Example 342] | 6.00 to 6.30
COc1cc(C(=O)O)ccc1NS(=O)(=O)c1ccc(C2=CCC(c3ccccc3)CC2)cc1F (stereo not drawn) [Example 343, 4-((3-fluoro-2′,3′,4′,5′-tetrahydro-[1,1′:4′,1″-terphenyl])-4-sulfonamido)-3-methoxybenzoic acid] | > 7.00
COc1cc(C(=O)O)ccc1NS(=O)(=O)N1Cc2nc(-c3ccc(C4CCCCC4)cc3)sc2C1 [Example 344] | 6.00 to 6.30
COc1cc(C(=O)O)ccc1NS(=O)(=O)N1Cc2nc(C#CC3CCCC3)sc2C1 [Example 345] | 6.30 to 7.00
COc1cc(C(=O)O)ccc1NS(=O)(=O)c1ccc(-c2ccc(C3CCCCC3)cc2)nc1 [Example 346] | 4.00 to 6.00
COc1cc(C(=O)O)ccc1NS(=O)(=O)c1csc(N2CCN(C(=O)OC(C)C)CC2)n1 [Example 347] | 4.00 to 6.00
COc1cc(C(=O)O)ccc1NS(=O)(=O)c1csc(-c2ccc(C3CCC(C(F)(F)F)CC3)cc2)n1 (stereo not drawn) [Example 348] | > 7.00
COc1cc(C(=O)O)ccc1NS(=O)(=O)c1csc(-c2ccc(C3=CCCCC3)cc2)n1 [Example 349] | > 7.00
CCC[C@H]1CC[C@H](c2ccc(-c3nc(S(=O)(=O)Nc4ccc(C(=O)O)cc4OC)cs3)cc2)CC1 [Example 350] | > 7.00
COc1cc(C(=O)O)ccc1NS(=O)(=O)c1csc(-c2ccc(C3CCC3)cc2)n1 [Example 351] | > 7.00
CC[C@H]1CC[C@H](c2ccc(-c3nc(S(=O)(=O)Nc4ccc(C(=O)O)cc4OC)cs3)cc2)CC1 [Example 352] | > 7.00
COc1cc(C(=O)O)ccc1NS(=O)(=O)c1csc(-c2ccc(C3CCC(C(C)(C)C)CC3)cc2)n1 (stereo not drawn) [Example 353, 4-((2-(4-(4-(tert-butyl)cyclohexyl)phenyl)thiazole)-4-sulfonamido)-3-methoxybenzoic acid] | > 7.00
COc1cc(C(=O)O)ccc1NS(=O)(=O)c1csc(C2=CCC(c3ccccc3)CC2)n1 (stereo not drawn) [Example 354] | > 7.00
COc1cc(C(=O)O)ccc1NS(=O)(=O)c1ccc(-c2cnn(C3CCCCC3)c2)cc1F [Example 355] | 6.30 to 7.00
COc1cc(C(=O)O)ccc1NS(=O)(=O)c1ccc(C2=CCC3(CC2)OCCO3)cc1F [Example 356] | 6.30 to 7.00
COc1cc(C(=O)O)ccc1NS(=O)(=O)c1ccc(C2CCC(c3ccccc3)CC2)cc1F (stereo not drawn) [Example 357] | 6.30 to 7.00
COc1cc(C(=O)O)ccc1NS(=O)(=O)N1Cc2nc(C3=CCC(F)(F)CC3)sc2C1 [Example 358] | 6.30 to 7.00
